The source of these data is US20110311621A1, “PHARMACEUTICAL COMPOSITIONS AND METHODS OF DELVERY” (priority 2010, published 2011).

Data set [1] in a line: Aliskiren bioavailability after jejunal administration to conscious rats, compared with oral solution by gavage. Particulars: AUC relative to aliskiren oral solution (gavage).
Excerpt: (i) Jejunal Administration to Conscious rats
To test the bioavailability of formulations in the jejunum of conscious rats, a specialized rat model was established in which two different cannulas are surgically implanted in male Sprague-Dowley rats (other rats may also be used): • 1—jejunal cannula to bypass the stomach and enable direct formulation administration to the jejunum; and • 2—jugular vein cannula to determine the systematic levels of the administered dextran following jejunal administration.
Rats were allowed to recover for 4 days before the study and were deprived of food for 18 hours before the start of the study. […]
Blood samples were drawn from the jugular vein at an appropriate series of times post jejunal administration and post IV administration, (or post SC administration), plasma was prepared and levels of active ingredient were determined in each sample. The average absolute Bioavailability (aBA) achieved after jejunal administration of the formulation is calculated as described below.
Exposure values, AUC (0-T), are calculated from the area under the serum concentration versus time curve (AUC) and are determined for jejunal and intravenous administration (or SC administration). […]
For a further data set, the system named is conscious rats. In words: Effect of CCK-8 on food intake: volume of D-glucose solution consumed by conscious rats. The class given is in vivo, Sprague Dawley rats. The note with it: 0.165 mg CCK-8 per rat; 30 min post administration. As to the method:
Three of the above formulations (R, S and T) were prepared as follows for use in testing biological activity: Formulation R at levels of 0.165, 0.055, 0.003 mg CCK-8 per rat; Formulation S at 0.09 mg CCK-8 per rat; and Formulation T at 0.09 mg CCK-8 per rat. Thus Formulation R with 0.055 CCK-8 (% w/w) was used at 0.3 and 0.1 ml per rat to give a dose of 0.165 and 0.055 (mg per rat); Formulation R with 0.001 CCK-8 (% w/w) was used at 0.3 ml per rat to give a dose of 0.003 mg per rat; and Formulations S and T with 0.03 CCK-8 (% w/w) were both used at 0.3 ml to give a dose of 0.09 mg per rat.
The effect of oral administration of CCK8 on food intake was achieved by measuring the volume of D-glucose consumed by conscious rats (essentially using the method described by Chun-Min et al., Am. Physio. Soc. 296:R43-R50, 2009). The feeding response of conscious rats to exogenous oral CCK-8 was analyzed by measuring the volume of D-glucose solution consumed. Sprague Dawley rats cannulated at the jejunum (as described in Example 2) were fasted for 18 h. The fasted animals were administrated with a dose range of exogenous CCK8 using three formulations. Three groups served as controls: Rats administered with formulation alone; rats administered with CCK-8 in saline (0.165 mg
The volume of glucose solution consumption was measured at 30 min, 60 min and 90 min post administration. […]

On to `COCCCOc1cc(C[C@@H](C[C@H](N)[C@@H](O)C[C@H](C(=O)NCC(C)(C)C(N)=O)C(C)C)C(C)C)ccc1OC` [Aliskiren oral solution, aliskiren], for which, in data set [1], the Fold from gavage is on record as 1. For `CSCC[C@H](NC(=O)[C@H](Cc1ccc(OS(=O)(=O)O)cc1)NC(=O)[C@@H](N)CC(=O)O)C(=O)NCC(=O)N[C@@H](Cc1c[nH]c2ccccc12)C(=O)N[C@@H](CCSC)C(=O)N[C@@H](CC(=O)O)C(=O)N[C@@H](Cc1ccccc1)C(N)=O` [CCK8 in saline, Sincalide], in the data set on conscious rats, the “Average volume of glucose solution consumed (± standard error)” value was 6.80 ± 0.99 mL and the “Median volume of glucose solution consumed” value came out at 7.90 mL.
